Reference: US6723897B2, “Methods for controlling gibberellin levels” (Monsanto Technology, LLC, priority 1998, dated 2004)

Tests used:
[1] = test system: non-transgenic soybean line A4922; experiment: Field trial of seed coatings under soil compaction / different soils, wild-type soybean; format: in vivo, Glycine max; conditions: for Count (emergence) / Height (total plant height): A4922
Procedure: The second trial (data reported in Tables 22-24) tested the precursors under conditions of soil compaction.
As noted above, the second trial tested the noted precursors under conditions of soil compaction. These experiments are performed in the same manner as in the first trial, except that the soil is compacted with an all-terrain vehicle.
“Height” equals total plant height in cm.

[2] = test system: AX5/antisense CPScc soybean line 234 (R3); experiment: Hilum seed treatment of epicotyl-intensive GA-deficient soybean, height (FIG. 43); format: in vivo, Glycine max; conditions: 10 DAP
Procedure: The purpose of this study is to evaluate the ability of four GA compounds, i.e., GA9, GA5, GA3-3-acetate, and GA12, to restore normal growth in AX5/antisense CPScc soybean lines when applied as a seed treatment.
Line 46 plants are R2; Line 234 plants are R3.
The GA compounds are dissolved in ethanol and applied to the hilum of dry seeds as not more than 10 μl droplets with a syringe. If multiple applications are made to seeds, the previous application is allowed to dry before a subsequent application is made.
Seeds are sown 1 inch deep in commercial potting soil (Metromix 200) in 4-inch plastic pots and placed in a greenhouse set for 12 hours artificial light and a temperature regime of 85° F. (29° C.) day and 75° F. night (24° C.). Pots are watered as necessary by overhead hand watering. Hypocotyl and epicotyl measurements are made for each plant at various stages of plant growth.
The lower dashed horizontal line represents the total height of untreated AX5 line 234 soybeans. The upper dashed horizontal line represents the total height of untreated wild-type A4922 soybeans. Measurements are made 10 days after planting.

[3] = test system: wild-type soybean line A4922; experiment: Field trial of seed coating application rates, wild-type soybean
Procedure: GA3, GA3-3-acetate, GA5, GA9, and GA12 are evaluated in further field trials. […] The objectives of these tests are: 1) to determine if seed coatings, as compared to imbibition, of GA compounds facilitate rescue of constitutively GA-deficient transgenic dwarf soybeans (transgenic lines 719−2 plus 719+17) without causing elongation of wild-type soybeans (line A4922), and 2) to determine the seed treatment rate ranges for each of the selected GA compounds that would provide rescue of constitutively GA-deficient transgenic dwarf soybeans (transgenic lines 719−2 plus 719+17) without causing elongation of wild-type soybeans (line A4922).
Seeds are treated with GA3, GA5, GA9, GA12, and GA3-3-acetate at rates of 0, 0.1, 1, 10, and 100 μg/seed. These GA compounds are applied to the seeds using a Hege 11 seed treater (Hans-Ulrich Hege GmbH & Co., Waldenburg, Germany); 100% acetone is used as the carrier solvent. The amount of liquid introduced into the seed treater is six fluid ounces/100 lbs seed rate. In addition, GA12 is tested at 50 μg/seed. The untreated control (UTC) consisted of dry, untreated seeds. Seeds of constitutively GA-deficient transgenic dwarf soybean line 719 and wild-type A4922 are sown in both light and heavy soil. The planting depth is 0.5 to 1 inch (1.27 to 2.54 cm); watering is via drip irrigation. The experiment is carried out in three repetitions, using 25 seeds/plot (one five foot (152.4 cm) long row) for line 719, and 75 seeds/plot (two eight foot (243.8 cm) rows) for line A4922. Observations included total emergence, number of dwarfs not rescued, uniformity in plant height, average plant height, visual notes, and digital photos.
In all the experiments reported in Tables 17-24, treatments are replicated three times in a randomized block design. Data are analyzed using LSD (least significant difference) 0.05 probability using the PRM 5.0 Statistical Analysis Program (SAS Institute, North Carolina).

[4] = test system: transgenic line 719 soybean; experiment: Field trial of seed coatings under soil compaction / different soils, GA-deficient soybean; format: in vivo, Glycine max; conditions: for Count (emergence) / Dwarfs (number of dwarfs not rescued) / Dwarfs (number not rescued): Line 719
[5] = Heavy soil - Loose, target rate 0.5 μg/seed, Table 23
[6] = Heavy soil - Loose, target rate 2.0 μg/seed, Table 23
[7] = Heavy soil - Loose, target rate 4.0 μg/seed, Table 23
[8] = Heavy soil - compacted, target rate 0.5 μg/seed, Table 23
[9] = Heavy soil - compacted, target rate 2.0 μg/seed, Table 23
[10] = Heavy soil - compacted, target rate 4.0 μg/seed, Table 23
[11] = Heavy soil - loose, target rate 0.5 μg/seed, Table 22
[12] = Heavy soil - loose, target rate 2.0 μg/seed, Table 22
[13] = Light soil - Compacted, target rate 0.5 μg/seed, Table 22
[14] = Light soil - Compacted, target rate 2.0 μg/seed, Table 22
[15] = Light soil - Loose, target rate 0.5 μg/seed, Table 24
[16] = Light soil - Loose, target rate 2.0 μg/seed, Table 24
[17] = Light soil - Loose, target rate 4.0 μg/seed, Table 24
[18] = Light soil - compacted, target rate 0.5 μg/seed, Table 24
[19] = Light soil - compacted, target rate 2.0 μg/seed, Table 24
[20] = Light soil - compacted, target rate 4.0 μg/seed, Table 24

## C=C1C[C@]23C[C@@]1(O)CC[C@H]2[C@@]12CC=C[C@@](C)(C(=O)O1)[C@H]2[C@@H]3C(=O)O [GA5]
[1]; [5]
  Count (emergence): 32.0 abc
  Height (total plant height): 5.3 g·cm·days
[1]; [6]
  Count (emergence): 24.7 de
  Height (total plant height): 6.7 bcd cm
[1]; [7]
  Count (emergence): 26.7 b-e
  Height (total plant height): 9.0 a cm
[1]; [8]
  Count (emergence): 13.7 abc
  Height (total plant height): 4.7 cde cm
[1]; [9]
  Count (emergence): 9.0 bcd
  Height (total plant height): 6.7 ab cm
[1]; [10]
  Count (emergence): 6.7 cde
  Height (total plant height): 6.7 ab cm
[1]; [11]
  Count (emergence): 32 abc
  Height (total plant height): 5.3 g·cm·days
[1]; [12]
  Count (emergence): 25 cde
  Height (total plant height): 6.7 bcd cm
[1]; [13]
  Count (emergence): 37 abc
  Height (total plant height): 6.7 cm·days
[1]; [14]
  Count (emergence): 22 de
  Height (total plant height): 9.0 c cm
[1]; [15]
  Count (emergence): 44.7 ab
  Height (total plant height): 6.0 fg·cm
[1]; [16]
  Count (emergence): 41.0 abc
  Height (total plant height): 10.0 bc cm
[1]; [17]
  Count (emergence): 43.3 abc
  Height (total plant height): 12.7 a cm
[1]; [18]
  Count (emergence): 36.7 abc
  Height (total plant height): 6.7 cm·days
[1]; [19]
  Count (emergence): 21.7 de
  Height (total plant height): 9.0 c cm
[1]; [20]
  Count (emergence): 18.7 def
  Height (total plant height): 11.7 a cm
[1]; ten days after planting, compacted soil
  plant height dose/response in wild-type line A4922 (FIG. 40): dose/response curves similar to that of GA3
[2]; hypocotyl and epicotyl elongation, hypocotyl to epicotyl ratio not maintained
  restoration of height of line 234 soybeans: restore normal height to line 234 soybeans
[2]; seed treatment rates between 0.1 and 1 μg/seed
  response of line 234 height: generally similar response
[3]; 0.1 μg compound per seed
  A4922 Height, cm, Heavy soil: 4.3 ghi cm
  A4922 Height, cm, Light soil: 6.0 fgh cm
  No. A4922 Emerged, Heavy soil: 32.3 b-g
  No. A4922 Emerged, Light soil: 51.7 bcd
[3]; 1 μg compound per seed
  A4922 Height, cm, Heavy soil: 7.0 ef cm
  A4922 Height, cm, Light soil: 7.3 fg·cm
  No. A4922 Emerged, Heavy soil: 37.3 b-f
  No. A4922 Emerged, Light soil: 47.3 c-g
[3]; 10 μg compound per seed
  A4922 Height, cm, Heavy soil: 17.3 b cm
  A4922 Height, cm, Light soil: 16.3 c cm
  No. A4922 Emerged, Heavy soil: 32.7 b-g
  No. A4922 Emerged, Light soil: 45.7 c-h
[3]; 100 μg compound per seed
  A4922 Height, cm, Heavy soil: 22.3 a cm
  A4922 Height, cm, Light soil: 29.7 a cm
  No. A4922 Emerged, Heavy soil: 38.3 b-e
  No. A4922 Emerged, Light soil: 46.7 c-g
[4]; [5]
  Count (emergence): 31.7 bcd
  Dwarfs (number of dwarfs not rescued): 2.0 cde
[4]; [6]
  Count (emergence): 32.3 bcd
  Dwarfs (number of dwarfs not rescued): 0.7 cde
[4]; [7]
  Count (emergence): 30.3 bcd
  Dwarfs (number of dwarfs not rescued): 0 e
[4]; [8]
  Count (emergence): 18.3 ab
  Dwarfs (number of dwarfs not rescued): 0 days
[4]; [9]
  Count (emergence): 9.0 g·days
  Dwarfs (number of dwarfs not rescued): 0 days
[4]; [10]
  Count (emergence): 7.0 efg
  Dwarfs (number of dwarfs not rescued): 0 days
[4]; [11]
  Count (emergence): 32 bcd
  Dwarfs (number of dwarfs not rescued): 2.0 cde
[4]; [12]
  Count (emergence): 32 bcd
  Dwarfs (number of dwarfs not rescued): 0.7 cde
[4]; [13]
  Count (emergence): 39 abc
  Dwarfs (number of dwarfs not rescued): 0 days
[4]; [14]
  Count (emergence): 30 a-f
  Dwarfs (number of dwarfs not rescued): 0 days
[4]; [15]
  Count (emergence): 46.3 a
  Dwarfs (number not rescued): 1.0 e
[4]; [16]
  Count (emergence): 43.3 ab
  Dwarfs (number not rescued): 0 e
[4]; [17]
  Count (emergence): 45.0 ab
  Dwarfs (number not rescued): 0 e
[4]; [18]
  Count (emergence): 39.0 abc
  Dwarfs (number not rescued): 0
[4]; [19]
  Count (emergence): 30.3 a-f
  Dwarfs (number not rescued): 0
[4]; [20]
  Count (emergence): 32.7 a-e
  Dwarfs (number not rescued): 0
[4]; based on the last two field trials
  rank of potential for rescuing GA-deficient dwarf soybeans without decreasing emergence: GA9>GA5>GA3-3-acetate>GA3>GA12
[4]; emergence under soil compaction, margin of selectivity, rescue without overelongation, Table 22
  best to least selectivity order: GA9>GA5>GA3-3-acetate>GA3
